From patent US20100240591A1, “TPP II INHIBITORS FOR USE IN THE TREATMENT OF AUTOIMMUNE AND INFLAMMATORY DISEASES AND TRANSPLANT REJECTION” (ONCOREG AB, priority 2007, published 2010)
Where “and” joins values, the source holds several entries; their conditions need not be identical. Identical values can stand only once. The star is where a group is joined. Cbz = O=C(OCc1ccccc1)*

Key:
TPPII [1] = biological target: T1, TPPII (Mus musculus, UniProt Q64514); experiment: Inhibition of cleavage of AAF-AMC by enriched TPP II (fluorometric peptidase assay); format: biochemical; parameters: 1 ug of high molecular weight protein was used as enzyme in peptidase assays; endogenous in cells; EL-4 (mouse T lymphoma) by inference; details: for cleavage of AAF-AMC, single reading: arbitrary but relative units; for cleavage of AAF-AMC, mean: mean of three readings
T1 sequence (Q64514 2-1262 limits assumed): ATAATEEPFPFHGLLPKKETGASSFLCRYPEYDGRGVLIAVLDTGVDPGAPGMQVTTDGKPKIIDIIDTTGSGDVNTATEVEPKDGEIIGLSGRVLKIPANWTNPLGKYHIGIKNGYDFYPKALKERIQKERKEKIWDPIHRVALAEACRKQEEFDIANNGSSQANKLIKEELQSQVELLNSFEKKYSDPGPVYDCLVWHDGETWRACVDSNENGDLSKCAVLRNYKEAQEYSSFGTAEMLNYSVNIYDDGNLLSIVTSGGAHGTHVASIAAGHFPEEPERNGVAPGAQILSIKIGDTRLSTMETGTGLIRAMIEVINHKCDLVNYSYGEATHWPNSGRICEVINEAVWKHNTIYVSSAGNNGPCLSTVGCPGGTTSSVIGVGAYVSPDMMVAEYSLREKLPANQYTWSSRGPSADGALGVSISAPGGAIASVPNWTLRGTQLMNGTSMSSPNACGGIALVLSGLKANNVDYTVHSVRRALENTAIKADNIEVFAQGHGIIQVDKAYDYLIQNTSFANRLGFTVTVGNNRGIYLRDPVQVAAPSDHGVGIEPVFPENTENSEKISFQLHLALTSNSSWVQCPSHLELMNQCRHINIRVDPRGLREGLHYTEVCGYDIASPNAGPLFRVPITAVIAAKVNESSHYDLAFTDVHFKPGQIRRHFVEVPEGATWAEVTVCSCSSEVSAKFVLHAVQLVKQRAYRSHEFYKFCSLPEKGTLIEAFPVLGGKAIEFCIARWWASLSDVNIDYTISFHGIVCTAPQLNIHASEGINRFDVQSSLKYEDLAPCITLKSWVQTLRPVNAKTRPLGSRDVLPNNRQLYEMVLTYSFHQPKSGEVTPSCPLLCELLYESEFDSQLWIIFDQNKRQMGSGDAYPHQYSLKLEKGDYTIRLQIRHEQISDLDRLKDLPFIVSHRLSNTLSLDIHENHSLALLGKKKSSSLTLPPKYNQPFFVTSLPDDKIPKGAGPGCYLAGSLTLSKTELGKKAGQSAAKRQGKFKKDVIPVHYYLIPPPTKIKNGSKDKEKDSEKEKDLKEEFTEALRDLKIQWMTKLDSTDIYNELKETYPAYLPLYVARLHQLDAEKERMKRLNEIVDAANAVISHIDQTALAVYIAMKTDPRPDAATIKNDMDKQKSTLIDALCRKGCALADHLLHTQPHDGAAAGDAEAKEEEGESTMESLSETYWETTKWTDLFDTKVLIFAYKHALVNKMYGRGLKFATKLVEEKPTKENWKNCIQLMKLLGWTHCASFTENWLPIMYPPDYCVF
Description: Protein Purification, Peptidase Assays and Analysis of DNA Fragmentation. 100×10^6 cells were sedimented and lysed by vortexing in glass beads and homogenisation buffer (50 mM Tris Base pH 7.5, 250 mM Sucrose, 5 mM MgCl2, 1 mM DTT). Cellular lysates were submitted to differential centrifugation where a supernatant from a 1 hour centrifugation at 100,000×g (cytosol) was submitted to 100,000×g centrifugation for 3-5 hours, which sedimented high molecular weight cytosolic proteins/protein complexes. The resulting pellet dissolved in 50 mM Tris Base pH 7.5, 30% Glycerol, 5 mM MgCl2, and 1 mM DTT, and 1 micro-g of high molecular weight protein was used as enzyme in peptidase assays or in Western blotting for TPP II expression. To test the activity of TPP II we used the substrate AAF-AMC (Sigma, St. Louis, Mo.), at 100 micro-M concentration in 100 micro-I of test buffer composed of 50 mM Tri Base pH 7.5, 5 mM MgCl2 and 1 mM DTT. Cleavage activity was measured by emission at 460 nm in a LS50B Luminescence Spectrometer (Perkin Elmer, Boston, Mass.). For analysis of DNA fragmentation cells were seeded in 12-well plates at 10^6 cells/ml and exposed to 25 micro-M etoposide, a DNA topoisomerase II inhibitor commonly used as an apoptosis-inducing agent, to starvation (50% PBS). Cells were seeded at 10^6 cells/ml in 12-well plates and incubated for the indicated times, usually 18-24 hours. DNA from EL-4 control and adapted cells was purified by standard chloroform extraction, and 2.5 micro-g of DNA was loaded on 1.8% agarose gel for detection of DNA from apoptotic cells.
Table 1 contains in vitro data, in fluorometric units which are arbitrary but relative, for the inhibition of cleavage of AAF-AMC (H-Ala-Ala-7-amido-4-methylcoumarin) by compounds at several concentrations. Some beneficial effect is seen for most of the compounds tested.
TPP II protein was enriched, and then a TPP II-preferred fluorogenic substrate AAF-AMC was used. 100×10^6 cells were sedimented and lysed by vortexing in glass beads and homogenisation buffer (50 mM Tris Base pH 7.5, 250 mM Sucrose, 5 mM MgCl2, 1 mM DTT). Cellular lysates were subjected to differential centrifugation; first the cellular homogenate was centrifuged at 14,000 rpm for 15 min, and then the supernatant was transferred to ultra-centrifugation tubes. Next the sample was ultra-centrifugated at 100,000×g for 1 hour, and the supernatant (denoted as cytosol in most biochemical literature) was subjected to 100,000×g centrifugation for 5 hours, which sedimented high molecular weight cytosolic proteins/protein complexes. The resulting pellet dissolved in 50 mM Tris Base pH 7.5, 30% Glycerol, 5 mM MgCl2, and 1 mM DTT, and 1 ug of high molecular weight protein was used as enzyme in peptidase assays.
To test the activity of TPP II we used the substrate and AAF-AMC (Sigma, St. Louis, Mo.), at 100 uM concentration in 100 ul of test buffer composed of 50 mM Tri Base pH 7.5, 5 mM MgCl2 and 1 mM DTT. To stop reactions we used dilution with 900 ul 1% SDS solution. Cleavage activity was measured by emission at 460 nm in a LS50B Luminescence Spectrometer (Perkin Elmer, Boston, Mass.).

Subtilisin = details: bacterial homologue of the eukaryotic TPP II; cited from earlier work
EL-4 T-lymphoma cells = experiment: Growth of EL-4 T-lymphoma cells in vivo in syngeneic C57BI/6 mice; parameters: species or system mouse; details: 13.8 mg/kg Z-GLA-OH added to 5 mg/kg Dexamethasone, twice weekly, C57BI/6 mice (FIG. 9)
Description: To test whether our TPPII inhibitors could improve the therapeutic effects of an anti-inflammatory drug in vivo, we examined growth of the T cell-derived lymphoma line EL-4 in vivo, in mice subjected to Cortisone-treatment. We used the derivate Dexamethasone at 5 mg/kg, a dose previously reported to cause thymocyte apoptosis, and a block of T cell responses in vivo (Brewer, J. A., Kanagawa, O., Sleckman, B. P., Muglia, L. J., Thymocyte apoptosis induced by T cell activation is mediated by glucocorticoids in vivo. J. Immunol. 2002, 169:1837-43.). The glucocorticoid receptor of T cells is crucial for curtailing lethal immune activation (Brewer J A, Khor B, Vogt S K, Muglia L M, Fujiwara H, Haegele K E, Sleckman B P, Muglia L J. T-cell glucocorticoid receptor is required to suppress COX-2-mediated lethal immune activation. Nat. Med. 2003 October; 9(10):1318-22.). Inhibited activation and proliferation of T cells in vivo by Dexamethasone-treatment is a standard method to treat patients with auto-immune, inflammatory as well as transplantation rejection diseases. It is however clear that disease symptoms, as well as immune activation and proliferation, are sometimes not controlled by Dexamethasone, or other Cortisone derivatives. […]
5×10^6 EL-4 T-lymphoma cells were inoculated subcutaneously into syngeneic C57BI/6 mice. […] The size of EL-4 lymphoma tumours were measured manually twice weekly. […]

TPPII [2] = biological target: T1, TPPII; experiment: Immuno-cytochemical staining of TPPII in live EL-4 cells treated with inhibitor; format: cell-based; parameters: endogenous in cells; host or cells: EL-4 mouse T-cell lymphoma; details: 2 hours, 10 micro-M
Description: Immunocytochemistry. Cells were attached to glass cover slips through cytospin and fixed in acetone:methanol (1:1) for 1 hour; then the slides were rehydrated in BSS buffer for 1 hour. The first antibody was added and remained for 1 hour until a brief wash in BSS, after which a secondary conjugate (anti-rabbit-FITC) was added and incubated for 1 hour.
Then the slides were washed and stained with Hoescht 333258 for 30 min. Finally, the slides were mounted with DABCO mounting buffer and kept at 4° C. until analysis.
We performed immuno-cytochemical staining to test whether targeting of TPPII in live cells affected enzyme expression or distribution, by the use of a chicken anti-TPPII serum.

Substance: Cbz-Gly-Leu-Ala-OH [Z-GLA-OH]
- cleavage of AAF-AMC, single reading (TPPII [1]; compound 1 nM): 32.54 fluorometric units and 32.61 fluorometric units and 33.41 fluorometric units
- cleavage of AAF-AMC, mean (TPPII [1]; compound 1 nM): 32.85 fluorometric units
- cleavage of AAF-AMC, single reading (TPPII [1]; compound 10 nM): 21.74 fluorometric units and 21.93 fluorometric units and 24.44 fluorometric units
- cleavage of AAF-AMC, mean (TPPII [1]; compound 10 nM): 22.70 fluorometric units
- cleavage of AAF-AMC, single reading (TPPII [1]; compound 100 nM): 14.43 fluorometric units and 14.26 fluorometric units and 14.37 fluorometric units
- cleavage of AAF-AMC, mean (TPPII [1]; compound 100 nM): 14.35 fluorometric units
- cleavage of AAF-AMC, single reading (TPPII [1]; compound 1 uM): 11.43 fluorometric units and 11.9 fluorometric units and 11.46 fluorometric units
- cleavage of AAF-AMC, mean (TPPII [1]; compound 1 uM): 11.60 fluorometric units
- cleavage of AAF-AMC, single reading (TPPII [1]; compound 10 uM): 6.47 fluorometric units and 7.66 fluorometric units and 7.49 fluorometric units
- cleavage of AAF-AMC, mean (TPPII [1]; compound 10 uM): 7.21 fluorometric units
- cleavage of AAF-AMC, single reading (TPPII [1]; compound 100 uM, 0 compound about 47-51): 1.14 fluorometric units and 1.44 fluorometric units and 1.55 fluorometric units
- cleavage of AAF-AMC, mean (TPPII [1]; compound 100 uM): 1.38 fluorometric units
- inhibition of Subtilisin (Subtilisin): found to inhibit
- anti-proliferative effect on EL-4 cells in vivo, in combination (EL-4 T-lymphoma cells): increased the anti-proliferative effects of Dexamethasone in some of the mice
- detection of TPPII by immuno-cytochemical staining (TPPII [2]): rapid decrease in the detection of TPPII, to almost undetectable levels
